Results reported in patent US20090233940A1, “Insecticide Compositions” (priority 2008, published 2009).

Tests used:
Cycad Asian Scale = experiment: Killing of scale insects / exterminating Cycad Asian Scale populations (general statements); settings: in vivo
[1] = can be used outdoors as well as indoors; cited from earlier work

Compound | usefulness in exterminating Cycad Asian Scale populations (Cycad Asian Scale) | photostability [1]
CCOC(=O)CC(SP(=S)(OC)OC)C(=O)OCC (centres unmarked) [Malathion, malathion] | particularly useful | –
CC(COc1ccc(Oc2ccccc2)cc1)Oc1ccccn1 (centres unmarked) [Nylar] | – | photostable
